Tests used:
estrogen receptor (ER) = estrogen receptor (ER) (Homo sapiens (Human), UniProt P03372); assay: Inhibition of the binding of estrogen (E) to estrogen receptor (ER), MCF-7/ERE-luciferase reporter cells; format: cell-based; conditions: MCF-7/ERE-luciferase cells, 0.1 nM estradiol, 24 hours; read-out: IC50 value of inhibition effect on the binding of E to ER
Description: The inhibition effect of the compounds on the binding of E to ER in vitro was tested by the following method.
The object of this experiment was to determine the inhibition effect of the compounds on the binding of E to ER, and the in vitro activity of the compounds was evaluated according to the IC50 value.
MCF-7/ERE-luciferase cells were inoculated into the MEM medium (hyclone, SH30024.01B) containing 10% charcoal stripped FBS (Moregate, FBSF), 1% sodium pyruvate (Sigma, Cat. No. S8636), 1% nonessential amino acids (Sigma, Cat. No. M7145) and 500 μg/ml G418 in a 96-well plate with a density of 30,000 cells/well, and the cells were incubated under the conditions of 37° C. and 5% CO2. […] After incubation for 24 hours, the medium was removed, then 0.1 nM estradiol (Sigma, Cat. No. E2758) and 10 μl of the drug diluted with the medium were added to each well, and the control group was added with DMSO. The plate was gently shaken and incubated in a incubator at 37° C., 5% CO2. After 24 hours, the cell culture medium was discarded.
The inhibition effect of the compounds of the present invention on the binding of E to ER was tested by the experiment described above.

MCF7 cells = assay: Inhibition of the proliferation of MCF7 cells (Cell Titer-Glo); format: cell-based; conditions: Homo sapiens, MCF-7 cells, 72 hours, read-out: IC50 value of inhibition effect on the proliferation of MCF7 cells
Method in brief: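 Viability by Cell Titer-Glo luminescence; IC50 from signal versus log concentration.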

ERα = ERα (Homo sapiens (Human), UniProt P03372); assay: Degradation effect on ERα in MCF-7 cells (ERα Duoset ELISA); format: cell-based; conditions: MCF-7 cells; read-out: IC50 value of the degradation effect on ERα
ERα, sequence (P03372 whole entry): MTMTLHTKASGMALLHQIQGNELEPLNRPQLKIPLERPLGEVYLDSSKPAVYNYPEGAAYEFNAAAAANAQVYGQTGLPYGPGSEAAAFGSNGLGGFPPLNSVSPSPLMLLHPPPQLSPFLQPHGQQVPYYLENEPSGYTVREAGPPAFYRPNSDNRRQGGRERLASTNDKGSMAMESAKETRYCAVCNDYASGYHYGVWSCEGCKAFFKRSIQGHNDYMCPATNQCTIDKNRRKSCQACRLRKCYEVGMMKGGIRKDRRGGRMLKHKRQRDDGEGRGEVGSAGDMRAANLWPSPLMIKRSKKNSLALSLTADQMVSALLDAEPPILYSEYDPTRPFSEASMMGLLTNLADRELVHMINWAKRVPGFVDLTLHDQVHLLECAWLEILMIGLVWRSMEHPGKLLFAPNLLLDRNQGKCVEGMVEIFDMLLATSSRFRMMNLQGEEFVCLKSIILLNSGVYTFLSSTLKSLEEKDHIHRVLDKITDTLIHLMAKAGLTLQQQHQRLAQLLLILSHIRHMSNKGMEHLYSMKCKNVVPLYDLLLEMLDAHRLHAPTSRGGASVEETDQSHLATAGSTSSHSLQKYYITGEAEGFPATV
Description: In order to determine the degradation effect on ER induced by the compounds of the present invention, the following method was used to determine the degradation effect of the compounds of the present invention on ER.
MCF-7 cell line (TChu 74, Cell Bank of Chinese Academy of Sciences typical culture preservation Committee)
ERα Duoset Kit (#DYC5715E, R&D System)
MCF-7 cells were incubated in DMEM/F-12 medium containing 10% FBS.
On the first day of the experiment, MCF-7 cells were resuspended in DMEM/F-12 medium containing 10% FBS treated by activated carbon, then inoculated into a 48-well plate with a density of 50,000 cells/well and incubated for 22-24 hours.
On the second day of the experiment, the test compound was diluted with medium and added to a 48-well plate. The ERα-capture antibody was diluted to 1 μg/ml with PBS, and added to a 96-well plate at 100 μl/well. The plate was sealed and coated overnight at room temperature.
On the third day of the experiment, the coated 96-well plate was washed twice with PBS, added with a sealing solution (1% BSA in PBS) at 110 μl/well and sealed for 1 hour at room temperature. The 48-well plate was washed once with PBS, and the residual liquid was removed. Then, 60 μl of lysis (6 M urea, 1 mM EDTA, 0.5% Triton X-100, 1 mM PMSF, Protease Inhibitor cocktail) was added to each well. After lysis on ice for 15 minutes, the diluent (1 mM EDTA, 0.5% TritonX-100 dissolved in PBS) was added. The cell-diluted lysate was transferred to a 96-well plate at 100 μl/well, then the plate was incubated at room temperature for 2 hours. The diluted primary antibody was added after the plate was washed 4 times with a washing liquid (PBST). After incubation for 1 hour, the 96-well plate was washed 4 times, and the second antibody was added, then the plate was incubated for 30 minutes. After the plate was washed with a washing liquid, TMB chromogenic solution was added and incubated for 15 minutes. The reaction was stopped by the addition of 1 M H2SO4, then the light absorption at 450 nm was read.

[1] = Pharmacokinetics assay in BALB/C nude mice after intragastrical administration; format: in vivo; conditions: female, mouse, plasma, po, 3 mg/kg; for AUC: read-out: Area Under Curve AUC; for CL/F: read-out: Clearance CL/F (converted); for half-life: read-out: Half-Life t½ (converted); for MRT: read-out: Mean Residence Time MRT; for Cmax: read-out: Plasma Conc. Cmax
Description: BALB/C nude mice were used as test animals. The drug concentration in plasma at different time points was determined by LC/MS/MS after intragastrical administration of the compounds of Examples 10, 14, 20, 21, 57, 68, 71, 73, 74, 76 and 89 to BALB/C nude mice. The pharmacokinetic behavior of the compounds of the present invention was studied and evaluated in BALB/C nude mice.
Ninety-nine (99) female BALB/C nude mice were equally divided into 11 groups, which were purchased from SINO-BRITSH SIPPR/BK LAB. ANIMAL LTD., CO, with Certificate No.: SCXK (Shanghai) 2008-0016.
The appropriate amount of each test compound was weighed, and successively added with 9% PEG400+0.5% tween 80+0.5% PVP+90% aqueous solution of 0.5% CMC.
After an overnight fast, 99 female BALB/C nude mice were equally divided into 11 groups, and administered the test compounds intragastrically at an administration volume of 0.2 mL/10 g.
Blood (0.1 mL) was sampled (3 mice at each time point) at 0.5, 1.0, 2.0, 4.0, 6.0, 8.0, 11.0 and 24.0 hours after administration. The samples were stored in heparinized test tubes, and centrifuged for 10 minutes at 3,500 rpm to separate the blood plasma. The plasma samples were stored at −20° C. The plasma concentration of the test compounds in BALB/C nude mice after intragastrical administration was determined by LC/MS/MS.
Pharmacokinetic parameters of the compounds of Examples 10, 14, 20, 21, 57, 68, 71, 73, 74, 76 and 89 of the present invention are shown below.

estrogen receptor (ER), sequence (P03372 whole entry): as above

SMILES | IC50 (estrogen receptor (ER)) [nM] | IC50 (MCF7 cells) [nM] | DC50 (ERα) [nM] | AUC [1] [ng·h/mL] | CL/F [1] [mL/min/kg] | half-life [1] [min] | MRT [1] [h] | Cmax [1] [ng/mL]
CC1Cc2cc3c(cc2C(c2c(F)cc(/C=C/C(=O)O)cc2F)N1CC(C)(C)F)OCCO3 [Example 2, (E)-3-(3,5-difluoro-4-((6S,8R/6R,8S)-7-(2-fluoro-2-methylpropyl)-8-methyl-2,3,6,7,8,9-hexahydro-[1,4]dioxino[2,3-g]isoquinolin-6-yl)phenyl)acrylic acid] | 3.2 | 0.49 | 0.95 | – | – | – | – | –
CNC(=O)COc1ccc2c(c1)CC(C)N(CC(C)(C)F)C2c1c(F)cc(/C=C/C(=O)O)cc1F [Example 32, (E)-3-(3,5-difluoro-4-((1S,3R/1R,3S)-2-(2-fluoro-2-methylpropyl)-3-methyl-6-(2-(methylamino)-2-oxoethoxy)-1,2,3,4-tetrahydroisoquinolin-1-yl)phenyl)acrylic acid] | 1.45 | 0.01 | 0.41 | – | – | – | – | –
CC1Cc2cc(N3CCOCC3)ccc2C(c2c(F)cc(/C=C/C(=O)O)cc2F)N1CC(C)(C)F [Example 41, (E)-3-(3,5-difluoro-4-((1S,3R/1R,3S)-2-(2-fluoro-2-methylpropyl)-3-methyl-6-morpholino-1,2,3,4-tetrahydroisoquinolin-1-yl)phenyl)acrylic acid] | 1.94 | 1.9 | 0.36 | – | – | – | – | –
CC1Cc2c(ccc(-c3cnn(C)c3)c2F)C(c2c(F)cc(/C=C/C(=O)O)cc2F)N1CC(C)(C)F [Example 45, (E)-3-(3,5-difluoro-4-((1S,3R/1R,3S)-5-fluoro-2-(2-fluoro-2-methylpropyl)-3-methyl-6-(1-methyl-1H-pyrazol-4-yl)-1,2,3,4-tetrahydroisoquinolin-1-yl)phenyl)acrylic acid] | 0.87 | 0.08 | 2.12 | – | – | – | – | –
CCn1cc(-c2ccc3c(c2F)CC(C)N(CC(C)(C)F)C3c2c(F)cc(/C=C/C(=O)O)cc2F)cn1 [Example 47, (E)-3-(4-((1S,3R/1R,3S)-6-(1-ethyl-1H-pyrazol-4-yl)-5-fluoro-2-(2-fluoro-2-methylpropyl)-3-methyl-1,2,3,4-tetrahydroisoquinolin-1-yl)-3,5-difluorophenyl)acrylic acid] | 1.5 | 0.71 | 3.54 | – | – | – | – | –
CC1Cc2cc(-c3cnn(CCF)c3)ccc2C(c2c(F)cc(/C=C/C(=O)O)cc2F)N1CC(C)(C)F [Example 48, (E)-3-(3,5-difluoro-4-((1S,3R/1R,3S)-2-(2-fluoro-2-methylpropyl)-6-(1-(2-fluoroethyl)-1H-pyrazol-4-yl)-3-methyl-1,2,3,4-tetrahydroisoquinolin-1-yl)phenyl)acrylic acid] | 1.82 | 0.64 | 7.36 | – | – | – | – | –
CC1Cc2cc(-c3cnn(C)c3)ccc2C(c2c(F)cc(/C=C/C(=O)O)cc2F)N1CC(C)(C)F [Example 55, (E)-3-(3,5-difluoro-4-((1S,3R/1R,3S)-2-(2-fluoro-2-methylpropyl)-3-methyl-6-(1-methyl-1H-pyrazol-4-yl)-1,2,3,4-tetrahydroisoquinolin-1-yl)phenyl)acrylic acid] | 0.82 | 0.2 | 0.69 | – | – | – | – | –
CC1Cc2c(oc3cccc(F)c23)C(c2c(F)cc(/C=C/C(=O)O)cc2F)N1CC(C)(C)F [Example 73, (E)-3-(3,5-difluoro-4-((1R,3R/1S,3S)-5-fluoro-2-(2-fluoro-2-methylpropyl)-3-methyl-1,2,3,4-tetrahydrobenzofuro[2,3-c]pyridin-1-yl)phenyl)acrylic acid] | – | 0.2 | 0.76 | 3950 | 210 | 88.2 | 2.45 | 1490
CCn1cc(-c2ccc3oc4c(c3c2)CC(C)N(CC(C)(C)F)C4c2c(F)cc(/C=C/C(=O)O)cc2F)cn1 [Example 76, (E)-3-(4-((1R,3R/1S,3S)-6-(1-ethyl-1H-pyrazol-4-yl)-2-(2-fluoro-2-methylpropyl)-3-methyl-1,2,3,4-tetrahydrobenzofuro[2,3-c]pyridin-1-yl)-3,5-difluorophenyl)acrylic acid] | – | 0.59 | 2.43 | 26900 | 31 | 272 | 5.7 | 5460

Reference: patent US10087191B2, “Piperidine derivative and preparation method and pharmaceutical use thereof” (Jiangsu Hengrui Medicine Co., Ltd., priority 2015, dated 2018)
